Laboratory results reported in patent US20040197294A1, “Cosmetic and/or pharmaceutical preparations” (priority 2001, published 2004).
Where two headings read alike, the source gives them in different places.

Key:
[1] = tested on: pig's epidermis; assay: Dermatological compatibility: transepidermal water loss (TEWL), gravimetric; details: […] by weight partial glyceride or glycerol ether in 17% by weight Plantapon PS 10, pH 5.5; skin treated 30 minutes at 40° C.; lower = better compatibility
Method: (§1) Dermatological compatibility was evaluated by determining the transepidermal water loss (TEWL) in a pig's epidermis. To this end, defined pieces of skin were treated with the various test solutions for 30 minutes at 40° C. and the TEWL value was gravimetrically determined. The test solutions were mixtures of 17% by weight Plantapon® PS 10 (sodium lauryl ether sulfate and Lauryl Glycoside, Cognis Dusseldorf) with 1.5% by weight fatty acid partial glycerides or glycerol ethers (see Table 1) in preservative-containing water (WAS 10% by weight). The pH was adjusted to 5.5 with citric acid.

[2] = tested on: pig's epidermis; details: pH 5.5
Method: as §1

CCCCCCCCCCCC(=O)OCC(O)CO (centres unmarked) [Example 10, Lauric acid monoglyceride (>90)]
TEWL [%-rel] = [treated/untreated * 100] − 100% [1]: 10.5 %-rel

Isostearic acid monoglyceride (>90) [Example 8]
TEWL [%-rel] = [treated/untreated * 100] − 100% [1]: 18.5 %-rel

CCCCCCCCOCC(O)CO (centres unmarked) [Example 2, Glycerol monocapryl ether (>90)]
TEWL [%-rel] = [treated/untreated * 100] − 100% [1]: 5.0 %-rel

Lauric acid mono/diglyceride (65:35) [Example 9]
TEWL [%-rel] = [treated/untreated * 100] − 100% [2]: 20.5 %-rel

Isostearic acid mono/diglyceride (65:35) [Example 7]
TEWL [%-rel] = [treated/untreated * 100] − 100% [2]: 22.0 %-rel
